Test results taken from ChEMBL document CHEMBL4190368, “Synthesis and antimalarial evaluation of artesunate-polyamine and trioxolane-polyamine conjugates” (Eur J Med Chem, 2017).

Tests used:
L6 = assay: Cytotoxicity in rat L6 cells assessed as reduction in cell viability incubated for 72 hrs by alamar blue dye based assay; details: L6, 72 h
Plasmodium falciparum [1] = assay: Antiplasmodial activity against chloroquine sensitive Plasmodium falciparum NF54 assessed as reduction in [3H]-hypoxanthine incorporation incubated for 48 hrs by liquid scintillation counting method; assay type: functional, organism-based
[2] = Selectivity index, ratio of IC50 for rat L6 cells to IC50 for chloroquine and pyrimethamine resistant Plasmodium falciparum K1; assay type: toxicity; details: L6 cells versus Plasmodium falciparum K1, read-out: Ratio IC50
Plasmodium falciparum [3] = assay: Antiplasmodial activity against chloroquine and pyrimethamine resistant Plasmodium falciparum K1 assessed as reduction in [3H]-hypoxanthine incorporation incubated for 48 hrs by liquid scintillation counting method; assay type: functional, organism-based
Plasmodium berghei [4] = assay: Antiplasmodial activity against GFP-transfected Plasmodium berghei ANKA infected in NMRI mouse assessed as mouse survival at 50 mg/kg/day, ip for 4 days measured up to 30 days; assay type: functional
Plasmodium berghei [5] = assay: Antiplasmodial activity against GFP-transfected Plasmodium berghei ANKA infected in NMRI mouse assessed as reduction in parasitaemia at 50 mg/kg/day, ip for 4 days measured on 24 hrs after last dose by FACS analysis; assay type: functional; parameters: scale not given: the % may be the effect or the level left
[6] = Selectivity index, ratio of IC50 for rat L6 cells to IC50 for chloroquine sensitive Plasmodium falciparum NF54; assay type: toxicity; details: L6 cells versus Plasmodium falciparum NF54, read-out: Ratio IC50

Structure (SMILES)	IC50 (L6)	IC50 (Plasmodium falciparum [1])	selectivity ratio [2]	IC50 (Plasmodium falciparum [3])	Survival (Plasmodium berghei [4])	Activity (Plasmodium berghei [5])	selectivity ratio [6]
O=C(O)C1CCC2(CC1)OOC1(O2)C2CC3CC(C2)CC1C3 (stereo unspecified)	139000 nM	6.5 nM	49600	2.8 nM			
C[C@H]1[C@H](OC(=O)CCC(=O)NCCCN(CCCCCCN(CCCNC(=O)CCC(=O)O[C@@H]2O[C@@H]3O[C@@]4(C)CC[C@H]5[C@H](C)CC[C@@H]([C@H]2C)[C@@]35OO4)C(=O)CCC(=O)O[C@@H]2O[C@@H]3O[C@@]4(C)CC[C@H]5[C@H](C)CC[C@@H]([C@H]2C)[C@@]35OO4)C(=O)CCC(=O)O[C@@H]2O[C@@H]3O[C@@]4(C)CC[C@H]5[C@H](C)CC[C@@H]([C@H]2C)[C@@]35OO4)O[C@@H]2O[C@@]3(C)CC[C@H]4[C@H](C)CC[C@@H]1[C@@]24OO3	880 nM	0.6 nM	1470	0.6 nM			
C[C@H]1[C@H](OC(=O)CCC(=O)NCCCN(CCCCCCCN(CCCNC(=O)CCC(=O)O[C@@H]2O[C@@H]3O[C@@]4(C)CC[C@H]5[C@H](C)CC[C@@H]([C@H]2C)[C@@]35OO4)C(=O)CCC(=O)O[C@@H]2O[C@@H]3O[C@@]4(C)CC[C@H]5[C@H](C)CC[C@@H]([C@H]2C)[C@@]35OO4)C(=O)CCC(=O)O[C@@H]2O[C@@H]3O[C@@]4(C)CC[C@H]5[C@H](C)CC[C@@H]([C@H]2C)[C@@]35OO4)O[C@@H]2O[C@@]3(C)CC[C@H]4[C@H](C)CC[C@@H]1[C@@]24OO3	1240 nM	0.8 nM	2070	0.6 nM			
O=C(NCCCN(CCCCCCCN(CCCNC(=O)C1CCC2(CC1)OOC1(O2)C2CC3CC(C2)CC1C3)C(=O)C1CCC2(CC1)OOC1(O2)C2CC3CC(C2)CC1C3)C(=O)C1CCC2(CC1)OOC1(O2)C2CC3CC(C2)CC1C3)C1CCC2(CC1)OOC1(O2)C2CC3CC(C2)CC1C3 (stereo unspecified)	> 71000 nM	287 nM	> 934	76 nM			
O=C(NCCCN(CCCCCCN(CCCNC(=O)C1CCC2(CC1)OOC1(O2)C2CC3CC(C2)CC1C3)C(=O)C1CCC2(CC1)OOC1(O2)C2CC3CC(C2)CC1C3)C(=O)C1CCC2(CC1)OOC1(O2)C2CC3CC(C2)CC1C3)C1CCC2(CC1)OOC1(O2)C2CC3CC(C2)CC1C3 (stereo unspecified)	63200 nM	22 nM	5740	11 nM			
CC(C)(C)OC(=O)N(CCCCCCN(CCCNC(=O)C1CCC2(CC1)OOC1(O2)C2CC3CC(C2)CC1C3)C(=O)OC(C)(C)C)CCCNC(=O)C1CCC2(CC1)OOC1(O2)C2CC3CC(C2)CC1C3 (stereo unspecified)	59200 nM	21 nM	10800	5 nM	6.7 days	79.4%	
C[C@H]1[C@H](OC(=O)CCC(=O)NCCCN(CCCCCCCCCCN(CCCNC(=O)CCC(=O)O[C@@H]2O[C@@H]3O[C@@]4(C)CC[C@H]5[C@H](C)CC[C@@H]([C@H]2C)[C@@]35OO4)C(=O)OC(C)(C)C)C(=O)OC(C)(C)C)O[C@@H]2O[C@@]3(C)CC[C@H]4[C@H](C)CC[C@@H]1[C@@]24OO3	500 nM	0.8 nM	625	0.8 nM			
O=C(NCCCN(CCCCCCCCN(CCCNC(=O)C1CCC2(CC1)OOC1(O2)C2CC3CC(C2)CC1C3)C(=O)C1CCC2(CC1)OOC1(O2)C2CC3CC(C2)CC1C3)C(=O)C1CCC2(CC1)OOC1(O2)C2CC3CC(C2)CC1C3)C1CCC2(CC1)OOC1(O2)C2CC3CC(C2)CC1C3 (stereo unspecified)	59200 nM	26 nM	5380	11 nM			
O=C(NCCCN(CCCCN(CCCNC(=O)C1CCC2(CC1)OOC1(O2)C2CC3CC(C2)CC1C3)C(=O)C1CCC2(CC1)OOC1(O2)C2CC3CC(C2)CC1C3)C(=O)C1CCC2(CC1)OOC1(O2)C2CC3CC(C2)CC1C3)C1CCC2(CC1)OOC1(O2)C2CC3CC(C2)CC1C3 (stereo unspecified)	50400 nM	98 nM	8130	6.2 nM			
CC(C)(C)OC(=O)N(CCCCN(CCCNC(=O)C1CCC2(CC1)OOC1(O2)C2CC3CC(C2)CC1C3)C(=O)OC(C)(C)C)CCCNC(=O)C1CCC2(CC1)OOC1(O2)C2CC3CC(C2)CC1C3 (stereo unspecified)	65800 nM	5.1 nM	7160	9.2 nM	9.3 days	96.4%	
CC(C)(C)OC(=O)N(CCCCCCCCN(CCCNC(=O)C1CCC2(CC1)OOC1(O2)C2CC3CC(C2)CC1C3)C(=O)OC(C)(C)C)CCCNC(=O)C1CCC2(CC1)OOC1(O2)C2CC3CC(C2)CC1C3 (stereo unspecified)	57600 nM	79 nM	976	59 nM			
C[C@H]1[C@H](OC(=O)CCC(=O)NCCCN(CCCCCCCN(CCCNC(=O)CCC(=O)O[C@@H]2O[C@@H]3O[C@@]4(C)CC[C@H]5[C@H](C)CC[C@@H]([C@H]2C)[C@@]35OO4)C(=O)OC(C)(C)C)C(=O)OC(C)(C)C)O[C@@H]2O[C@@]3(C)CC[C@H]4[C@H](C)CC[C@@H]1[C@@]24OO3	970 nM	0.6 nM	1210	0.8 nM			
CC(C)(C)OC(=O)N(CCCCCCCN(CCCNC(=O)C1CCC2(CC1)OOC1(O2)C2CC3CC(C2)CC1C3)C(=O)OC(C)(C)C)CCCNC(=O)C1CCC2(CC1)OOC1(O2)C2CC3CC(C2)CC1C3 (stereo unspecified)	> 100000 nM	45.4 nM	> 3020	32.2 nM	7.3 days	94.7%	
C[C@H]1[C@H](OC(=O)CCC(=O)NCCCN(CCCCN(CCCNC(=O)CCC(=O)O[C@@H]2O[C@@H]3O[C@@]4(C)CC[C@H]5[C@H](C)CC[C@@H]([C@H]2C)[C@@]35OO4)C(=O)CCC(=O)O[C@@H]2O[C@@H]3O[C@@]4(C)CC[C@H]5[C@H](C)CC[C@@H]([C@H]2C)[C@@]35OO4)C(=O)CCC(=O)O[C@@H]2O[C@@H]3O[C@@]4(C)CC[C@H]5[C@H](C)CC[C@@H]([C@H]2C)[C@@]35OO4)O[C@@H]2O[C@@]3(C)CC[C@H]4[C@H](C)CC[C@@H]1[C@@]24OO3	11200 nM	0.3 nM			30 days	95.5%	37300
C[C@H]1[C@H](OC(=O)CCC(=O)NCCCN(CCCCCCCCN(CCCNC(=O)CCC(=O)O[C@@H]2O[C@@H]3O[C@@]4(C)CC[C@H]5[C@H](C)CC[C@@H]([C@H]2C)[C@@]35OO4)C(=O)OC(C)(C)C)C(=O)OC(C)(C)C)O[C@@H]2O[C@@]3(C)CC[C@H]4[C@H](C)CC[C@@H]1[C@@]24OO3	560 nM	0.7 nM	700	0.8 nM			
O=C(NCCCN(CCCCCCCCCCN(CCCNC(=O)C1CCC2(CC1)OOC1(O2)C2CC3CC(C2)CC1C3)C(=O)C1CCC2(CC1)OOC1(O2)C2CC3CC(C2)CC1C3)C(=O)C1CCC2(CC1)OOC1(O2)C2CC3CC(C2)CC1C3)C1CCC2(CC1)OOC1(O2)C2CC3CC(C2)CC1C3 (stereo unspecified)	> 69000 nM	88 nM	> 2300	30 nM			
C[C@H]1[C@H](OC(=O)CCC(=O)NCCCN(CCCCCCCCN(CCCNC(=O)CCC(=O)O[C@@H]2O[C@@H]3O[C@@]4(C)CC[C@H]5[C@H](C)CC[C@@H]([C@H]2C)[C@@]35OO4)C(=O)CCC(=O)O[C@@H]2O[C@@H]3O[C@@]4(C)CC[C@H]5[C@H](C)CC[C@@H]([C@H]2C)[C@@]35OO4)C(=O)CCC(=O)O[C@@H]2O[C@@H]3O[C@@]4(C)CC[C@H]5[C@H](C)CC[C@@H]([C@H]2C)[C@@]35OO4)O[C@@H]2O[C@@]3(C)CC[C@H]4[C@H](C)CC[C@@H]1[C@@]24OO3	900 nM	0.8 nM	1500	0.6 nM			
C[C@H]1[C@H](OC(=O)CCC(=O)NCCCN(CCCCCCCCCCN(CCCNC(=O)CCC(=O)O[C@@H]2O[C@@H]3O[C@@]4(C)CC[C@H]5[C@H](C)CC[C@@H]([C@H]2C)[C@@]35OO4)C(=O)CCC(=O)O[C@@H]2O[C@@H]3O[C@@]4(C)CC[C@H]5[C@H](C)CC[C@@H]([C@H]2C)[C@@]35OO4)C(=O)CCC(=O)O[C@@H]2O[C@@H]3O[C@@]4(C)CC[C@H]5[C@H](C)CC[C@@H]([C@H]2C)[C@@]35OO4)O[C@@H]2O[C@@]3(C)CC[C@H]4[C@H](C)CC[C@@H]1[C@@]24OO3	490 nM	0.6 nM	445	1.1 nM			
CC(C)(C)OC(=O)N(CCCCCCCCCCN(CCCNC(=O)C1CCC2(CC1)OOC1(O2)C2CC3CC(C2)CC1C3)C(=O)OC(C)(C)C)CCCNC(=O)C1CCC2(CC1)OOC1(O2)C2CC3CC(C2)CC1C3 (stereo unspecified)	70900 nM	97 nM	1180	60 nM			
C[C@H]1[C@H](OC(=O)CCC(=O)NCCCN(CCCCCCN(CCCNC(=O)CCC(=O)O[C@@H]2O[C@@H]3O[C@@]4(C)CC[C@H]5[C@H](C)CC[C@@H]([C@H]2C)[C@@]35OO4)C(=O)OC(C)(C)C)C(=O)OC(C)(C)C)O[C@@H]2O[C@@]3(C)CC[C@H]4[C@H](C)CC[C@@H]1[C@@]24OO3	660 nM	0.8 nM	733	0.9 nM			
C[C@H]1[C@H](OC(=O)CCC(=O)O)O[C@@H]2O[C@@]3(C)CC[C@H]4[C@H](C)CC[C@@H]1[C@@]24OO3 [ARTESUNATE]	6630 nM	2.6 nM	13300	0.5 nM			
